The record followed here is ChEMBL document CHEMBL4419120, “Bitter taste receptors” (2015).

Assay [1] deals with T1, Taste receptor type 2 member 38 (Homo sapiens) (UniProt P59533).
T1 sequence (whole entry): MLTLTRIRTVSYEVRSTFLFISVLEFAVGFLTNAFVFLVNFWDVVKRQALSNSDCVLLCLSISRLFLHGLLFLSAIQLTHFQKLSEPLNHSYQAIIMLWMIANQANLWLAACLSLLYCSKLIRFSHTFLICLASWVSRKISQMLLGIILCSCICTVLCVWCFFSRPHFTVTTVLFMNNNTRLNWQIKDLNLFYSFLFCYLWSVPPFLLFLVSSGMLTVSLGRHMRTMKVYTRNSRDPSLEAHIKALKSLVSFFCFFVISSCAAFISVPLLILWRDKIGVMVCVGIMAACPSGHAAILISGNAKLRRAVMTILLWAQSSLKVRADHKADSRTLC
Nature of the assay: Activity at human TAS2R38 expressed in HEK-293T-Galpha16-gustducin44 cells assessed as threshold concentration of compound at which point receptor detects compounds by measuring calcium response by FLIPR assay. It counts as functional, cell-based.

Assay [2] concerns the target T2, Taste receptor type 2 member 38 (Homo sapiens, UniProt P59533).
T2 sequence (P59533 whole entry): T1 sequence (whole entry)
Nature of the assay: Activity at human TAS2R38 expressed in HEK-293T-Galpha16-gustducin44 cells assessed as effect on calcium response by FLIPR assay. The assay is classed as functional, cell-based.

Assay [3] has as its target T3, Taste receptor type 2 member 16 (Homo sapiens) (UniProt Q9NYV7).
T3 sequence (whole entry): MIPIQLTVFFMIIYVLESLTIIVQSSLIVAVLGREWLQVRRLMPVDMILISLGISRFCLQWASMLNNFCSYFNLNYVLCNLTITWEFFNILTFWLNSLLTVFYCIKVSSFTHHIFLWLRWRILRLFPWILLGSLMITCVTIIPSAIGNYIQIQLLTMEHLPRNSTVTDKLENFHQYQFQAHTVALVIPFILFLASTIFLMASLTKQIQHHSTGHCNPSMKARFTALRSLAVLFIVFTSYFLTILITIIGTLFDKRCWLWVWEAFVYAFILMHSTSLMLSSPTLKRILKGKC
The assay is described as follows: Activity at human TAS2R16 expressed in HEK-293T-Galpha16-gustducin44 cells assessed as threshold concentration of compound at which point receptor detects compounds by measuring calcium response by FLIPR assay. The assay is classed as functional, cell-based.

The target of assay [4] is T3, Taste receptor type 2 member 16 (Homo sapiens). Nature of the assay: Activity at human TAS2R16 expressed in HEK293/15 cells assessed as threshold concentration of compound at which point receptor detects compounds by measuring calcium response by FLIPR assay. The assay is classed as functional, cell-based.
The target in assay [5] is T4, Taste receptor type 2 member 10 (Homo sapiens, UniProt Q9NYW0).
T4 sequence (Q9NYW0 whole entry): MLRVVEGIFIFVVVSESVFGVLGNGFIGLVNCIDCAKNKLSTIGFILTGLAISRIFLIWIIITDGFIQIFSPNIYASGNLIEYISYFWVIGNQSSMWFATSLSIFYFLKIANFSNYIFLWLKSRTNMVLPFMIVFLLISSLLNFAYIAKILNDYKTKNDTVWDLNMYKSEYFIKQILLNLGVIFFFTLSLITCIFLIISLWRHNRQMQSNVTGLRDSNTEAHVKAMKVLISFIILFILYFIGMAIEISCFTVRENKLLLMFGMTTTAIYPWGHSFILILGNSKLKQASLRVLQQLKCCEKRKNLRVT
Nature of the assay: Activity at human TAS2R10 expressed in HEK-293T-Galpha16-gustducin44 cells assessed as effect on calcium response by FLIPR assay. The assay is classed as functional, cell-based.

Assay [6] addresses T5, Taste receptor type 2 member 10 (Homo sapiens) (UniProt Q9NYW0).
T5 sequence (whole entry): T4 sequence (Q9NYW0 whole entry)
Nature of the assay: Activity at human TAS2R10 expressed in HEK-293T-Galpha16-gustducin44 cells assessed as threshold concentration of compound at which point receptor detects compounds by measuring calcium response by FLIPR assay. The assay is classed as functional, cell-based.

For assay [7], the target named is T5, Taste receptor type 2 member 10 (Homo sapiens). The assay is described as follows: Activity at human TAS2R10 expressed in HEK293/15 cells assessed as compound concentration showing threshold of activation on calcium response by FLIPR assay. The assay is classed as functional, cell-based.
The test system of assay [8] is Homo sapiens. The assay is described as follows: In-vivo activity at TAS2R16 in trained human taste panelists assessed as detection of bitterness intensity of compound in sensory panel room at 22 to 25 degC by triangle test with tap water as solvent. The assay is classed as functional, organism-based.
For assay [9], the target named is T6, Taste receptor type 2 member 16 (Homo sapiens, UniProt Q9NYV7).
T6 sequence (Q9NYV7 whole entry): T3 sequence (whole entry)
The assay is described as follows: Activity at human TAS2R16 expressed in HEK293/15 cells assessed as effect on calcium response by FLIPR assay. It counts as functional, cell-based.

The target of assay [10] is T6, Taste receptor type 2 member 16. The assay is described as follows: Activity at human TAS2R16 expressed in HEK-293T-Galpha16-gustducin44 cells assessed as effect on calcium response by FLIPR assay. The assay is classed as functional, cell-based.
For assay [11], the system named is Homo sapiens. The assay is described as follows: In-vivo activity at TAS2R16 in trained human taste panelists assessed as threshold concentration of compound at which point panelists detects bitterness intensity of compound in sensory panel room at 22 to 25 degC by triangle test with tap water as solvent. It counts as functional.
Assay [12] concerns the target T7, Taste receptor type 2 member 14 (Homo sapiens) (UniProt Q9NYV8).
T7 sequence (whole entry): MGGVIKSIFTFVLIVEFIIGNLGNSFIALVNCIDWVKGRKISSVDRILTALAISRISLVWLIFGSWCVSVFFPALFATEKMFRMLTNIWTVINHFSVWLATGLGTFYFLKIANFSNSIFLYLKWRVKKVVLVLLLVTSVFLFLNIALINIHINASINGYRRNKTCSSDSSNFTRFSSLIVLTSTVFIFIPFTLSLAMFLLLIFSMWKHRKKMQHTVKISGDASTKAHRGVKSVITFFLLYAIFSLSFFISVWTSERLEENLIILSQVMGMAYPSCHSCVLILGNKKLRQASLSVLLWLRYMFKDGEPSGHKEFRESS
The assay is described as follows: Activity at human TAS2R14 expressed in HEK-293T-Galpha16-gustducin44 cells assessed as concentration of compound which reacts with receptor by measuring calcium response by FLIPR assay. The assay is classed as functional, cell-based.

Assay [13] has as its target T1, Taste receptor type 2 member 38 (Homo sapiens). The assay is described as follows: Activity at human TAS2R38 expressed in HEK-293T-Galpha16-gustducin44 cells assessed as concentration of compound which reacts with receptor by measuring calcium response by FLIPR assay. It counts as functional, cell-based.
Assay [14] addresses T3, Taste receptor type 2 member 16 (Homo sapiens). Nature of the assay: Activity at human TAS2R16 expressed in HEK293/15 cells assessed as effect on calcium response up to 100 mM by FLIPR assay. The assay is classed as functional, cell-based.
Assay [15] shares this target. Nature of the assay: Activity at human TAS2R16 expressed in HEK293/15 cells assessed as threshold concentration of compound at which point receptor detects compounds by measuring calcium response up to 100 mM by FLIPR assay. It counts as functional, cell-based.

Activity calls are given as the source filed them.

In the case of `S=C1NCCN1`, in assay [1], the Activity turned out to be 10 µM.
Take `CC(=O)NC(N)=S`: in assay [2], the EC50 is 15 µM. Further, in [1], the Activity stood at 2 µM.
For `O=c1cc[nH]c(=S)[nH]1` [THIOURACIL] the same measures were 2000 µM and 300 µM.
Regarding `O=[N+]([O-])c1ccccc1O[C@@H]1O[C@H](CO)[C@@H](O)[C@H](O)[C@H]1O`, the figures for the Activity in assay [3] and in assay [4] were 0.3 to 1 mM and 1.5 mM, respectively.
As for `CN(C)C=S`, the EC50 in assay [2] was determined as 55 µM. For the same compound, the Activity in [1] came to 10 µM.
In the case of `O=C1C[C@@H]2OCC=C3CN4CC[C@]56c7ccccc7N1[C@H]5[C@H]2[C@H]3C[C@H]46` [STRYCHNINE], the concentration for a half-maximal effect (EC50) in assay [5] was 40 µM. Besides, the Activity in [6] stood at 0.003 mM; in assay [7] it was 0.1 µM.
Take `OCc1ccccc1O[C@@H]1O[C@H](CO)[C@@H](O)[C@H](O)[C@H]1O` [SALICIN]: the EC50 was determined as 1100 µM in [8], 1400 µM in [9] and 1400 µM in assay [10]. For the same compound, the results for the Activity in [3], in [11] and in assay [4] were 0.07 mM, 0.2 mM and 0.07 mM, respectively.
Turning to `CN(C)C(=S)N(C)C`, the concentration giving a half-maximal response (EC50) in assay [2] was found to be 100 µM. The Activity in assay [1] lay within 10 to 30 µM.
In the same order, the values of `O=c1cc(-c2ccccc2)[nH]c(=S)[nH]1` are 0.5 µM and 0.15 µM.
Take `N[C@@H](Cc1ccc(O)cc1)C(=O)O`: the Activity in assay [12] was 1 mM.
For the compound `O=C1CC(=O)NC(=S)N1`, the Activity in [13] came out at 10 mM.
For the compound `CC[N+](CC)(CC(=O)Nc1c(C)cccc1C)Cc1ccccc1` [DENATONIUM BENZOATE], in [5], the EC50 stood at 70 µM. Moreover, in [6], the Activity was 0.003 mM.
Turning to `COc1cc2c(cc1OC)[C@@]13CCN4CC5=CCO[C@H]6CC(=O)N2[C@H]1[C@H]6[C@H]5C[C@H]43` [BRUCINE], the EC50 in [5] came to 60 µM. Besides, in assay [6], the Activity came to 0.01 mM. In assay [7], the outcome was Active.
Consider `NC(=S)Nc1ccccc1` [PHENYLTHIOUREA], for which the EC50 in [2] was 2 µM. In addition, the Activity in [1] was determined as 0.3 µM.
Turning to `O=[N+]([O-])c1ccc(S[C@@H]2O[C@H](CO)[C@@H](O)[C@H](O)[C@H]2O)cc1`, the Activity in assay [3] lay within 1 to 5 mM.
For the compound `CCCc1cc(=O)[nH]c(=S)[nH]1` [PROPYLTHIOURACIL], the EC50 in assay [2] is 2 µM. In addition, the Activity in [1] was 0.3 µM.
In the case of `O=c1ccc2cc(O[C@@H]3O[C@H](CO)[C@@H](O)[C@H](O)[C@H]3O)c(O)cc2o1` [ESCULIN], the Activity in [3], in [11] and in [4] was 4 mM throughout.
On to `CO[C@@H]1O[C@H](CO)[C@@H](O)[C@H](O)[C@H]1O`, for which the Activity in [3] was 15 mM; in assay [11] it was 32 mM; in assay [4] it was 15 mM. For the same compound, the concentration for a half-maximal effect (EC50) in assay [10] was 32000 µM.
For `OC[C@H]1O[C@@H](Oc2ccccc2)[C@H](O)[C@@H](O)[C@@H]1O`, the results for the EC50 in assay [8], in [9] and in assay [10] were 700 µM, 1100 µM and 1100 µM, respectively. Further, the Activity in [3] was found to be 0.07 mM; in assay [11] it was 0.1 mM; in assay [4], 0.07 mM.
In the case of `CC/N=C(/N)S`, the Activity in assay [1] turned out to be 30 µM.
In the case of `N#C[C@H](O[C@@H]1O[C@H](CO[C@@H]2O[C@H](CO)[C@@H](O)[C@H](O)[C@H]2O)[C@@H](O)[C@H](O)[C@H]1O)c1ccccc1` [AMYGDALIN], the EC50 in [9] and in [10] was 20000 µM each time. Also, the Activity in [3] and in assay [4] was 2.3 mM in each case.
As to `O=[N+]([O-])c1ccc(O[C@@H]2O[C@H](CO)[C@@H](O)[C@H](O)[C@@H]2O)cc1`, the Activity in assay [3] is 1 to 3 mM.
Consider `O=Cc1ccccc1O[C@@H]1O[C@H](CO)[C@@H](O)[C@H](O)[C@H]1O` [HELICIN], for which the figures for the EC50 in [8], in assay [9] and in [10] were 2200 µM, 2300 µM and 2300 µM, respectively. Also, the Activity in assay [3] worked out at 0.3 mM; in assay [11] it was 0.4 mM; in [4], 0.3 mM.
For `CC(=N)S`, the Activity in assay [1] came to 100 µM.
In the case of `OC[C@H]1O[C@@H](Oc2ccccc2)[C@H](O)[C@@H](O)[C@H]1O`, the result in assay [14] and in [15] was inactive. Further, the Activity in [11] was 40 mM.
As for `OC[C@H]1O[C@@H](Oc2ccc3ccccc3c2)[C@H](O)[C@@H](O)[C@@H]1O`, the EC50 turned out to be 1400 µM in [8], 1000 µM in assay [9] and 1000 µM in assay [10]. Also, the Activity in [3] is 0.4 mM; in [11] it was 0.2 mM; in assay [4] it was 0.4 mM.
On to `CC(=S)Nc1ccccc1`, for which the EC50 in assay [2] worked out at 18 µM. Moreover, in assay [1], the Activity came out at 3 µM.
In the case of `OC[C@H]1O[C@H](Oc2ccccc2)[C@H](O)[C@@H](O)[C@@H]1O`, the EC50 in assay [8] was found to be 50000 µM. The result in [14] and in assay [15] was inactive. Besides, in assay [11], the Activity worked out at 9 mM.
Take `OC[C@H]1O[C@@H](Oc2ccc(O)cc2)[C@H](O)[C@@H](O)[C@@H]1O` [ARBUTIN]: the figures for the EC50 in [8], in assay [9] and in [10] were 5400 µM, 5800 µM and 5800 µM, respectively. The Activity in assay [3] was determined as 0.5 mM; in assay [11], 0.9 mM; in assay [4], 0.5 mM.
On to `O=[N+]([O-])c1ccc(O[C@@H]2O[C@H](CO)[C@@H](O)[C@H](O)[C@H]2O)cc1`, for which the Activity in assay [3] is 1 to 3 mM.
`CNC(N)=S`: the EC50 in assay [2] lay within 600 to 800 µM. Moreover, the Activity in [1] stood at 100 µM.
As to `CCNC(N)=S`, the EC50 in assay [2] came out at 260 µM.

The EC50 is the concentration that produces a half-maximal response.
